Entries after “also recorded” stand apart in the source; their conditions may differ.
How the values were obtained:
[1] = Intravenous pharmacokinetic study in mice (blood plasma)
Experimental: Intravenous Pharmacokinetic Study in Mice. The intravenous pharmacokinetic study in mice was carried out by the company Touchstone Biosciences (Plymouth Meeting, USA) according to their standard procedures. In brief, 3 male adult mice of the CD-1 strain were fasted overnight. 5 mg/kg compound was given intravenously in one shot.

[2] = system: primary cultured microglial cells; experiment: Flow cytometry-based phagocytosis assay; assay type: cell-based, mouse; conditions: 2.5 μM C1
Experimental: Flow cytometry-based phagocytosis assay. 10^6 primary cultured microglial cells were seeded into 3.5 cm dishes in plain medium overnight at standard conditions. The cells were treated for 1 hour with 2.5 μM C1 in DMSO, 125×10^−5 v/v DMSO respectively, or plain medium only. To stimulate microglia, LPS (1 μg/ml) was added for additional 24 hours. Fluoresbrite Carboxylate Microspheres (BrightBlue, 4.5 μm, Polyscience, Niles, USA) were coated with fetal calf serum for 30 min at room temperature, and subsequently centrifuged at 3000 g for 2 min at room temperature. The beads were resuspended in HBSS at a final concentration of 2×10^6 beads per ml. The microglia culture was washed once with HBSS (37° C.) before 1 ml bead solution was applied. The cells were incubated with the beads for 30 min at 37° C. Afterwards, microglia were washed twice with ice cold HBSS, scratched off and pulled down at 500 g for 5 min. The cells were resuspended in a propidium iodide solution (1:200 in HBSS) to stain dead cells. The stained cells were transferred to a BD LSRFortessa Flow cytometer (BD Bioscience, Sparks, USA). The median intensity of the bright blue beads was calculated using Flowlo v10 software (Ashland, USA). The data of each experiment was normalised to the unstimulated media control.

[3] = system: primary cultured neonatal astrocytes; experiment: Propidium iodide based proliferation and cell death assay in astrocytes; conditions: 2.5 μM C1, 48 hours, unstimulated
Experimental: Primary cultured neonatal astrocytes. The preparation of primary cultured neonatal astrocytes followed the preparation of the primary cultured neonatal microglia, described above. After the third shake off, the remaining astrocytes were trypsinated, washed with PBS and seeded into a 96 well plate (10 000 cells/well, 200 μL medium per well).
Propidium iodide based proliferation and cell death assay. To determine the relative proliferation and cell death, the cells were seeded into a […], let adhere for 24 hours and afterwards treated for additional 48 hours. The supernatant was removed, and the cells were washed carefully with 37° C. HBSS once. 1/200 propidium iodide PBS solution was added and the cells were incubated for 10 minutes. The intensity of the propidium iodide signal of the dead cells was measured using a microplate reader. Afterwards, all cells were killed with a 10 min incubation of 10% DMSO and the propidium iodide signal of all cells was measured. All signals were corrected for the background noise, subtracting the blank signal. The percentage of dead cells was calculated by dividing the dead-cell-signal by the all-cell-signal. Proliferation was calculated as a relative value to the plain medium control.

[4] = system: C57Bl/6 mice after 30 minutes MCAO; experiment: Middle cerebral artery occlusion (MCAO) model of mild ischemic injury; assay type: in vivo, mouse; conditions: 5 mg/kg i.p. daily
Experimental: Animals and Group Allocation for middle cerebral artery occlusion (MCAO) study. C57BL/6 (13 weeks old, Charles River, Germany) male mice were handled according to governmental (LaGeSo-G0249/15) and internal (MDC/Charitd) rules and regulations, having free access to food and water. A total of 24 male mice were analysed after a 30 minutes of left-sided MCAO. Animals were randomly attributed to treatment paradigms, and experimenters were blinded at all stages of interventions. The mice were injected intraperitoneally (i.p.) every day for the 7 days, subsequently of the behavioral tests, with the compound (n=11) or with the vehicle ([…], n=13).
Induction of cerebral ischemia. Mice were anesthetized for induction with 3-4% isoflurane and maintained in 1.5% isoflurane in 70% N2O and 30% O2 using a vaporizer. MCAO was essentially performed as described elsewhere (Endres et al., 2000). In brief, brain ischemia was induced with a silicone rubber-coated monofilament 7-0, diameter 0.06-0.09 mm, length 20 mm; diameter with coating […]; coating length 9-10 mm. The filament was introduced into the internal carotid artery up to the anterior cerebral artery. Thereby, the middle cerebral artery and anterior choroidal arteries were occluded. The filament was removed after 30 min to allow reperfusion.
MRI was performed using a 7 Tesla rodent scanner (Pharmascan 70/16, Bruker BioSpin, Bruker, Billerica, USA) with a 16 cm horizontal bore magnet and a 9 cm (inner diameter) shielded gradient with an H-resonance-frequency of 300 MHz and a maximum gradient strength of 300 mT/m. For imaging a 20 mm-1H-RF quadrature-volume resonator with an inner diameter of 20 mm was used. Data acquisition and image processing were carried out with the Bruker software Paravision 5.1. During the examinations mice were placed on a heated circulating water blanket to ensure constant body temperature of 37° C. Anaesthesia was induced with 2.5% and maintained with 2.0-1.5% isoflurane (Forene, Abbot, Wiesbaden, Germany) delivered in an O2/N2 mixture (0.3/0.7 L/min) via a facemask under constant ventilation monitoring (Small Animal Monitoring & Gating System, SA Instruments, New York, USA). For imaging the mouse brain a T2-weighted 2D turbo spin-echo sequence was used (imaging parameters TR/TE=4200/36 ms, rare factor 8, 4 averages, 32 axial slices with a slice thickness of 0.5 mm, field of view of 2.56×2.56 cm, matrix size 256×256).
Calculation of lesion volume was carried out with the program Analyze 10.0 (AnalyzeDirect, Inc., Overland Park, USA). The hyperintense ischemic areas in axial T2-weighted images were assigned with a region of interest tool. This enables threshold based segmentation by connecting all pixels within a specified threshold range about the selected seed pixel and results in 3D object map of the whole stroke region. Further the total volume of the whole object map was automatically calculated.
The Rotarod test was performed to access motor coordination using a treadmill with a diameter of 3 cm (TSE Systems, Chesterfield, USA). This test was performed with accelerating velocity (4-40 rpm) and maximal velocity was achieved after 300 s. The time until the animals dropped was measured. Animals were trained on day 2 and 3 before MCAO and baseline was taken on the day before MCAO. Tests were always performed four times and means were used for statistical analysis.
A vertical pole (80 cm high with rough surface) was used for this test, to analyse extrapyramidal motor locomotion. Mice were placed head upward on the top of the pole. The time taken to orientate the body completely downwards, making a 180° turn (t turn), and to reach the floor with all four paws (t down) were recorded. If the animal was unsuccessful for either task, it was scored the maximum time that any other animal from the same experimental group took to perform the task. Animals were trained on day 2 and 3 before MCAO and baseline was taken on the day before MCAO. […]

Q: With `COc1ccc(NC(=O)C(NC(=O)C2CCCN2C(=O)OCc2ccccc2)c2ccc(OC)cc2)cc1` (stereo not drawn) [C1] as the compound, how does the “survival / health issues within 24 hours” value ([1]; 5 mg/kg intravenous, 3 mice) read?
A: All mice survived; also recorded: no health issues were reported and all mice survived

Q: What about the “concentration in blood plasma” value ([1]; 5 min after 5 mg/kg intravenous, CD-1 male mice) of the same compound?
A: 12 µM

Q: And the concentration at 5 min ([1]; male, CD-1, mouse, plasma, intravenous, 5 mg/kg, concentration in blood plasma, 5 min after 5 mg/kg intravenous, CD-1 male mice)?
A: 11.9 µM

Q: What about the concentration at 24 h ([1]; male, CD-1, mouse, plasma, intravenous, 5 mg/kg, concentration in blood plasma, 24 hours after 5 mg/kg intravenous, CD-1 male mice) of the same compound?
A: 0.00126 µM

Q: What about the “phagocytic activity, basal conditions” value [2] of the same compound?
A: neither C1 nor DMSO changes microglial phagocytosis significantly; also recorded: did not alter

Q: And the “increase of phagocytosis upon LPS compared to own unstimulated control” value ([2]; 1 μg/mL LPS 24 hours)?
A: +45%

Q: And the “phagocytic activity, LPS stimulated conditions” value ([2]; 1 μg/mL LPS 24 hours)?
A: no significant differences; also recorded: did not alter

Q: And the “astrocytes cell death rate” value [3]?
A: no significant effect

Q: And the proliferation of astrocytes [3]?
A: did not show an effect

Q: And the “pole test, time descending the pole” value ([4]; day 2 after MCAO)?
A: 6.592 s

Q: What about the “pole test, time to turn 180°” value ([4]; day 2 after MCAO) of the same compound?
A: 1.175 s

Q: And the “accelerated Rotarod test” value ([4]; day 2 and 5 after MCAO, vs vehicle)?
A: no differences; also recorded: No significant difference

Q: What about the “volume of the ischemic lesion (MRI)” value ([4]; day 3 after MCAO, vs vehicle) of the same compound?
A: did not cause a significant difference; also recorded: No significant difference

Q: And the “pole test, difference to control group” value ([4]; day 5 after MCAO)?
A: No differences were observed

Q: And the “corner test, turns to the left in 10 turns” value ([4]; day 6 after MCAO)?
A: 7.00
